Data published in patent publication US20240101535A1, “DIHYDROISOQUINOLINONE DERIVATIVE AND APPLICATION THEREOF” (ETERN BIOPHARMA (SHANGHAI) CO., LTD., priority 2020, published 2024).
pIC50: −log10 of the molar value. Structures can show the parent of a compound that is named as a salt. Where two headings read alike, the source gives them in different places.

Tests used:
[1] = target: WDR5 protein (22-334aa) with MLL1 polypeptide (3672-3773aa) (Homo sapiens, UniProt P61964); assay: WDR5-MLL PPI inhibitory activity test (HTRF); assay type: binding; conditions: His-tagged WDR5 and biotin-tagged MLL1 polypeptide
Source text: Test Example 1: WDR5-MLL PPI Inhibitory Activity Test
Effect of the compounds on WDR5 (WD Repeat Domain 5) and MLL1 (mixed-lineage leukemia 1) peptides at molecular level.
The effect of the compound on the interaction of WDR5 protein (22-334aa) with MLL1 polypeptide (3672-3773aa) was detected by HTRF (Homogeneous Time-Resolved Fluorescence) technology. When the N-terminal His-tagged WDR5 recognized by the Anti-6His-Eu cryptate donor interacts with the biotin-tagged MLL1 polypeptide recognized by the streptavidin-APC receptor, the donor and acceptor are pulled close enough to produce fluorescence resonance energy transfer (FRET). […] Therefore, the decrease in FRET signal can reflect the compound's inhibition on the interaction of WDR5 with MLL1 polypeptide.
The compound to be tested was diluted 3-fold with DMSO. […] Then the compound was diluted with reaction buffer (25 mM HEPES pH=7.5, 100 mM NaCl, 0.05% Tween 20) to control the final concentration of DMSO at 0.5%. In a 384-well plate, 1 μL of compound and 3 μL of 42 nM WDR5 protein were added, centrifuged at 1000 rpm for 1 min, incubated at room temperature for 60 min, followed by adding 3 μL of 333 nM MLL1 polypeptide with incubation at room temperature for 10 min, and followed by adding 3 μL of a mixed liquid of Anti-6His-Eu cryptate and streptavidin-APC with centrifugation at 1000 rpm for 1 mi and incubation at room temperature protected from light for 60 min, using a multifunction microplate reader (EnVision®2105) to read the signal. The following controls were set up per plate: control group (1 μL with 5% DMSO reaction buffer, 3 μL of 42 nM WDR5, 3 μL of MLL1 polypeptide, 3 μL of Anti-6His-Eu cryptate and streptavidin-APC). Blank group (1 μL reaction buffer with 5% DMSO, 3 μL reaction buffer, 3 μL MLL1 polypeptide, 3 μL Anti-6His-Eu cryptate and streptavidin-APC). The test data was calculated according to the signal ratio of two beams of fluorescence at different wavelengths: (665 nm signal/620 nm signal)*10000. […] The IC50 value was calculated using XLfit software.

[2] = tested on: MV4-11 cells; assay: MV4-11 cell proliferation inhibition experiment (CellTiter-Glo); assay type: cell-based; conditions: 6 days, read-out: cell proliferation inhibitory activity
Description: Test Example 2: MV4-11 Cell (ATCC: CRL-9591) Proliferation Inhibition Experiment
ATP in living cells was quantitatively detected by CellTiter-Glo (Promega-G7573) Luminescence Cell Viability Assay Kit to determine the effect of the compounds to be tested on cell proliferation. • Step 1: MV4-11 cells were seeded in 96-well plates (Greiner-655098) at a density of 1,500 cells per well with a volume of 140 μL per well; Cell culture medium components included RPM11640 (Gibco-A10491-01)+10% FBS (Gibco-10099-141C)+1% Penicillin-Streptomycin (5,000 U/mL, Gibco-15070-063). • Step 2: On the day of cell seeding, the cells were treated with the compound to be tested. The compound to be tested was diluted with a 3-fold gradient, and a total of 9 concentration gradients were set. DMSO (Sigma, D2650) with 0.5% final concentration or a DMSO solution containing the compound to be tested was added per well with 2 or 3 replicate wells at each concentration point. The plates were incubated at 37° C. in a 5% CO2 incubator (Thermo Scientific Steri-Cycle 371) for 6 days. • Step 3: The cell viability in the control and treatment groups was detected with CellTiter-Glo Luminescent Cell Viability Assay Kit. 50 μL of CellTiter-Glo was added per well, mixed well, and incubated for 15 min at room temperature protected from light. According to the kit instructions, the chemiluminescence signal was read using a multifunctional microplate reader (EnVision, PerkinElmer).
The inhibition percentage (%) of the compound at each concentration point was calculated by the following formula:
Inhibition Percentage (%)=(1−signal value of the group treated with the compound/signal value of the group treated with DMSO)*100.
The value of cell proliferation semi-inhibitory concentration IC50 was calculated using GraphPad Prism software, and the results are shown in Table 2.

| Compound | pIC50 [1] | pIC50 ([2]; Homo sapiens, 144 h) | pIC50 [2] |
| --- | --- | --- | --- |
| CCOc1cc(CN2CC3(CCC3)c3c(CN4CC(F)(F)C4)cc(Cn4ccnc4NC)cc3C2=O)ncc1C#N [Compound 82, 6-((5′-((3,3-difluoroazetidinyl-1-yl)methyl)-7′-((2-(methylamino)-1H-imidazol-1-yl)methyl)-1′-one-1′H-spiro[cyclobutan-1,4′-isoquinoline]-2′(3′H)-yl)methyl)-4-ethoxynicotinonitrile] | > 7.70 | > 7.30 | – |
| CCOc1cc([C@H](C)N2CC3(CC3)c3c(CN4CC(F)(F)C4)cc(Cn4ccnc4NC)cc3C2=O)ncc1F [Compound 68, (S)-5′-((3,3-difluoroazetidinyl-1-yl)methyl)-2′-(1-(4-ethoxy-5-fluoropyridine-2-yl)ethyl)-7′-((2-(methylamino)-1H-imidazol-1-yl)methyl)-2′,3′-dihydro-1′H-spiro[cyclopropan-1,4′-isoquinoline]-1′-one] | > 7.70 | 6.70 to 7.30 | – |
| CNc1nccn1Cc1cc(CN(C)C)c2c(c1)C(=O)N([C@@H](C)c1cc(OC3CC3)c(F)cn1)CC21CC1 [Compound 14] | > 7.70 | 6.70 to 7.30 | – |
| CCOc1cc([C@H](C)N2CC3(CCC3)c3c(CN4CC[C@H](O)C4)cc(Cn4ccnc4NC)cc3C2=O)ncc1F [Compound 85, 2′-((S)-1-(4-ethoxy-5-fluoropyridine-2-yl)ethyl)-5′-(((S)-3-hydroxylpyrrolidin-1-yl)methyl)-7′-((2-(methylamino)-1H-imidazol-1-yl)methyl)-2′,3′-dihydro-1′H-spiro[cyclobutan-1,4′-isoquinoline]-1′-one] | > 7.70 | > 7.30 | – |
| CCOc1cc([C@H](C)N2CC3(CCCC3)c3c(CN(C)C)cc(Cn4ccnc4NC)cc3C2=O)ncc1F [Compound 19, (S)-5′-((dimethylamino)methyl)-2′-(1-(4-ethoxy-5-fluoropyridine-2-yl)ethyl)-7′-((2-(methylamino)-1H-imidazol-1-yl)methyl)-2′,3′-dihydro-1′H-spiro[cyclopentan-1,4′-isoquinoline]-1′-one] | > 7.70 | > 7.30 | – |
| CNc1nccn1Cc1cc(CN(C)C)c2c(c1)C(=O)N(C(C)c1ccc(F)c(OC)c1)CC21CCC1 (stereo not drawn) [Compound 107, 5′-((dimethylamino)methyl)-2′-(1-(4-fluoro-3-methoxyphenyl)ethyl)-7′-((2-(methylamino)-1H-imidazol-1-yl)methyl)-2′,3′-dihydro-1′H-spiro[cyclobutan-1,4′-isoquinoline]-1′-one] | > 7.70 | > 7.30 | – |
| CCOc1cc([C@H](C)N2CC3(CC3)c3c(CN4CCN(CC)CC4)cc(Cn4ccnc4NC)cc3C2=O)ncc1F [Compound 57] | > 7.70 | > 7.30 | – |
| CCOc1cc([C@H](C)N2CC3(CCC3)c3c(CN4CCOCC4)cc(Cn4ccnc4NC)cc3C2=O)ncc1C#N [Compound 72, (S)-4-ethoxy-6-(1-(7′-((2-(methylamino)-1H-imidazol-1-yl)methyl)-5′-(morpholinylmethyl)-1′-one-1′H-spiro[cyclobutyl-1,4′-isoquinoline]-2′(3′H)-yl)ethyl)nicotinonitrile] | > 7.70 | > 7.30 | – |

Second part, the compound after the results:

| pIC50 [1] | pIC50 ([2]; Homo sapiens, 144 h) | pIC50 [2] | Compound |
| --- | --- | --- | --- |
| > 7.70 | > 7.30 | – | CCOc1cc([C@H](C)N2CC3(CCC3)c3c(CN4CCC(OC)CC4)cc(Cn4ccnc4NC)cc3C2=O)ncc1C#N [Compound 81] |
| > 7.70 | > 7.30 | – | CCOc1cc(CN2CC3(CCC3)c3c(CN4CCN(C)CC4)cc(Cn4ccnc4NC)cc3C2=O)nn1C [Compound 87, 2′-((5-ethoxy-1-methyl-1H-pyrazole-3-yl)methyl)-7′-((2-(methylamino)-1H-imidazol-1-yl)methyl)-5′-((4-methylpiperazin-1-yl)methyl)-2′,3′-dihydro-1′H-spiro[cyclobutan-1,4′-isoquinoline]-1′-one] |
| > 7.70 | > 7.30 | – | [2H]C([2H])([2H])C([2H])([2H])Oc1cc(C(C)N2CC3(CCC3)c3c(CN(C)C)cc(Cn4ccnc4NC)cc3C2=O)ncc1C#N (stereo not drawn) [Compound 111, 6-(1-(5′-((dimethylamino)methyl)-7′-((2-(methylamino)-1H-imidazol-1-yl)methyl)-1′-oxo-1′H-spiro[cyclobutan-1,4′-isoquinoline]-2′(3′H)-yl)ethyl)-4-(ethoxy-d5)nicotinonitrile] |
| > 7.70 | > 7.30 | – | CCOc1cc([C@H](C)N2CC3(CCC3)c3c(CN4CC(F)(F)C4)cc(Cn4ccnc4NC)cc3C2=O)ncc1C#N [Compound 79, (S)-6-(1-(5′-((3,3-difluoroazetidinyl-1-yl)methyl)-7′-((2-(methylamino)-1H-imidazol-1-yl)methyl)-1′-one-1′H-spiro[cyclobutan-1,4′-isoquinoline]-2′(3′H)-yl)ethyl)-4-ethoxynicotinonitrile] |
| > 7.70 | > 7.30 | – | CCOc1cc([C@H](C)N2CC3(CC3)c3c(CN4CC(F)(F)C4)cc(Cn4ccnc4NC)cc3C2=O)ncc1C#N [Compound 67, (S)-6-(1-(5′-((3,3-difluoroazetidinyl-1-yl)methyl)-7′-((2-(methylamino)-1H-imidazol-1-yl)methyl)-1′-one-1′H-spiro[cyclopropan-1,4′-isoquinoline]-2′(3′H)-yl)ethyl)-4-ethoxynicotinonitrile] |
| > 7.70 | > 7.30 | – | CCOc1cc([C@H](C)N2CC3(CCC3)c3c(CN4CCN(C)CC4)cc(Cn4ccnc4NC)cc3C2=O)ncc1F [Compound 83, (S)-2′-(1-(4-ethoxy-5-fluoropyridine-2-yl)ethyl)-7′-((2-(methylamino)-1H-imidazol-1-yl)methyl)-5′-((4-methylpiperazin-1-yl)methyl)-2′,3′-dihydro-1′H-spiro[cyclobutan-1,4′-isoquinoline]-1′-one] |
| > 7.70 | 6.70 to 7.30 | – | CNc1nccn1Cc1cc(CN(C)C)c2c(c1)C(=O)N([C@@H](C)c1cc(OC(F)F)c(F)cn1)CC21CC1 [Compound 55] |
| > 7.70 | 6.70 to 7.30 | – | CCOc1cc([C@H](C)N2CC3(CC3)c3c(CN4CCN(CC(F)(F)F)CC4)cc(Cn4ccnc4NC)cc3C2=O)ncc1C#N [Compound 63, (S)-4-ethoxy-6-(1-(7′-((2-(methylamino)-1H-imidazol-1-yl)methyl)-1′-one-5′-((4-(2,2,2-trifluoroethyl)piperazin-1-yl)methyl)-1′H-spiro[cyclopropan-1,4′-isoquinoline]-2′(3′H)-yl)ethyl)nicotinonitrile] |
| > 7.70 | – | > 7.30 | (S)-4-ethoxy-6-(1-(7′-((2-(methylamino)-1H-imidazol-1-yl)methyl)-5′-(morpholinomethyl)-1′-one-1′H-spiro[cyclopropan-1,4′-isoquinoline]-2′(3′H)-yl)ethyl)nicotinonitrile [Compound 60] |
| > 7.70 | > 7.30 | – | CCOc1cc([C@H](C)N2CC3(CC3(F)F)c3c(CN(C)C)cc(Cn4ccnc4NC)cc3C2=O)ncc1C#N (stereo in doubt) [Compound 95, 6-(-1-(5′-((dimethylamino)methyl)-2,2-difluoro-7′-((2-(methylamino)-1H-imidazol-1-yl)methyl)-1′-one-1′H-spiro[cyclopropan-1,4′-isoquinoline]-2′(3′H)-yl)ethyl)-4-ethoxynicotinonitrileformate salt] |
